# According to patent US5698538A, “Boronic acid and ester inhibitors of thrombin” (The DuPont Merck Pharmaceutical Company, priority 1996, dated 1997):
# Where a name gives a salt, the structure may show the parent alone.
# How the values were obtained:
# Type in all cases: biochemical
# human factor Xa = target: T1, human factor Xa (Homo sapiens, UniProt P00742); assay: Inhibition of human factor Xa (chromogenic substrate S2222), inhibitory constant Ki; conditions: S2222, pH 7.5, 30 minutes, read-out: Ki values for inhibition of Serine Proteases: Factor Xa
# T1 construct: purchased Enzyme Research Laboratories, South Bend, Ind
# Description: (§1) The effectiveness of compounds of the present invention as inhibitors of blood coagulation proteases was determined using purified human proteases and synthetic substrates following procedures similar to those described in Kettner et al. (1990).
# (§2) For these assays, the rate of enzymatic (thrombin, Factor Xa, and Factor VIIa) hydrolysis of chromogenic substrates (S2238 (H-D-Phe-Pip-Arg-pNA), S2222, and S2288, respectively; Kabi Pharmacia, Franklin, Ohio.) was measured both in the absence and presence of compounds of the present invention. […] A decrease in the rate of absorbance change at 405 nm in the presence of inhibitor is indicative of enzyme inhibition. The results of this assay are expressed as inhibitory constant, Ki.
# (§3) Thrombin and Xa determinations were made in 0.10M sodium phosphate buffer, pH 7.5, containing 0.20M NaCl, and 0.5% PEG 8000. VIIa determinations were made in 0.05M tris buffer, pH 7.6, containing 0.10M NaCl, 4 mM CaCl2, and 0.1% bovine serum albumin. The Michaelis constant, Km, for substrate hydrolysis was determined at 5° C. using the method of Lineweaver and Burk.
# (§4) Values of Ki were determined by allowing 0.2-0.5 nM human thrombin or human factor Xa (Enzyme Research Laboratories, South Bend, Ind.), or 50 nM human factor VIIa (BiosPacific, Emeryville, Calif.) react with the substrate (0.20 mM-1 mM) in the presence of inhibitor. Reactions were allowed to go for 30 minutes and the velocities (rate of absorbance change vs time) were measured in the time frame of 25-30 minutes. The following relationship was used to calculate Ki values. [formula] where: vo is the velocity of the control in the absence of inhibitor;
# (§5) vs is the velocity in the presence of inhibitor;
# (§6) I is the concentration of inhibitor;
# (§7) Ki is the dissociation constant of the enzyme: inhibitor complex;
# (§8) S is the concentration of substrate;
# (§9) Km is the Michaelis constant.
# human factor VIIa = target: T2, human factor VIIa (Homo sapiens, UniProt P08709); assay: Inhibition of human factor VIIa (chromogenic substrate S2288), inhibitory constant Ki; conditions: 50 nM human factor VIIa, S2288, pH 7.6, 4 mM CaCl2, 30 minutes; read-out: Ki values for inhibition of Serine Proteases: Factor VIIa
# T2 construct: Factor VIIa in the extrinsic pathway; purchased BiosPacific, Emeryville, Calif
# T2 sequence (P08709 213-466 limits assumed): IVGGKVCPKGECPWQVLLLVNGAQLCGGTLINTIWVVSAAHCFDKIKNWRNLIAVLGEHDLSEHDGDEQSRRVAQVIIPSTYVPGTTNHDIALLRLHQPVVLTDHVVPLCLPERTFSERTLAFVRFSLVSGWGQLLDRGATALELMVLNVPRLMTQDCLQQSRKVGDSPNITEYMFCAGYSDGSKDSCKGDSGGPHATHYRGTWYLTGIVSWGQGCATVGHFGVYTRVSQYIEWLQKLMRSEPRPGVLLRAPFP
# T2 sequence (P08709 61-212 partner limits assumed): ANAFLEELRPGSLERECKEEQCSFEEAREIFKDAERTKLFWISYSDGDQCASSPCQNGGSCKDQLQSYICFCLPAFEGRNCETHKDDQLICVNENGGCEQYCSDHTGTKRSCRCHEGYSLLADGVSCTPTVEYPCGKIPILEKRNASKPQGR
# Description: as §1, §2, §3, §4, §5, §6, §7, §8, §9
# human thrombin = target: T3, human thrombin (Homo sapiens, UniProt P00734); assay: Inhibition of human thrombin (chromogenic substrate S2238), inhibitory constant Ki; conditions: 0.2-0.5 nM human thrombin, S2238, pH 7.5, 30 minutes; read-out: Ki values for inhibition of Serine Proteases: Thrombin
# T3 construct: purchased Enzyme Research Laboratories, South Bend, Ind
# Description: as §1, §2, §3, §4, §5, §6, §7, §8, §9
# T1 sequence (P00742 235-488 limits assumed): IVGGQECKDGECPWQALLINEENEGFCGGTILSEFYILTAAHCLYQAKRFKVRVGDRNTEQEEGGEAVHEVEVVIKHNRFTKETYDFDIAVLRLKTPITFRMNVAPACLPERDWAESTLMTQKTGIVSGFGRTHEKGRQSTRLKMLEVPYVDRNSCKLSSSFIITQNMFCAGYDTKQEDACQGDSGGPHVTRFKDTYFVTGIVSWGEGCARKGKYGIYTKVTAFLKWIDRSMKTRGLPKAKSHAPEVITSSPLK
# T1 sequence (P00742 41-179 partner limits assumed): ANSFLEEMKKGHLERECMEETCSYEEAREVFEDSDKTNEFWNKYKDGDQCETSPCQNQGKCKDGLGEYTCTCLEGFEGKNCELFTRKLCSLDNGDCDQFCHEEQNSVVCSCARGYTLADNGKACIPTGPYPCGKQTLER
Ki (human factor Xa),Ki (human factor VIIa),Ki (human thrombin),Structure (SMILES)
> 500 µM,0.5 to 50 µM,< 0.5 µM,"Cc1nc(-c2ccccc2)ncc1C(=O)N[C@@H](CCCCN)B1O[C@@H]2C[C@@H]3C[C@@H](C3(C)C)[C@]2(C)O1 [Example 3458, R-N^1-((2-phenyl-4-methylpyrimidin-5-yl)carbonyl)borolysine, (+)-pinanediol ester, hydrochloride]"
0.5 to 50 µM,< 0.5 µM,< 50 µM,CC1(C)[C@@H]2C[C@H]3OB([C@H](CCCCN)NC(=O)c4cccc(-c5ccccc5)c4)O[C@@]3(C)[C@H]1C2 [Example 68]
< 0.5 µM,0.5 to 50 µM,< 0.5 µM,"CC1(C)C2CC3OB([C@H](CCCNC(=N)N)NC(=O)Cn4nc(Cc5ccccc5)nc4-c4cccc([N+](=O)[O-])c4)OC3(C)C1C2 (single isomer, unassigned) [Example 2491]"
0.5 to 50 µM,0.5 to 50 µM,< 0.5 µM,CCCc1nc(Cc2ccccc2)n(CC(=O)N[C@@H](CCCCN)B2O[C@@H]3C[C@@H]4C[C@@H](C4(C)C)[C@]3(C)O2)n1 [Example 890]
< 0.5 µM,0.5 to 50 µM,< 0.5 µM,Cc1cc(-c2ccccc2S(N)(=O)=O)ccc1C(=O)N[C@@H](CCCNC(=N)N)B1O[C@@H]2C[C@@H]3C[C@@H](C3(C)C)[C@]2(C)O1 [Example 227]
< 0.5 µM,< 0.5 µM,< 0.5 µM,CC(C)(C)NS(=O)(=O)c1ccccc1-c1ccc(C(=O)N[C@@H](CCCNC(=N)N)B2O[C@@H]3C[C@@H]4C[C@@H](C4(C)C)[C@]3(C)O2)c(Cl)c1 [Example 262]
0.5 to 50 µM,0.5 to 50 µM,< 0.5 µM,CC1(C)[C@@H]2C[C@H]3OB([C@H](CCCCN)NC(=O)Cn4nc(COCc5ccccc5)nc4Cc4ccccc4)O[C@@]3(C)[C@H]1C2 [Example 914]
